SMILES strings stand for the structures.

As usually defined, the IC50 is the concentration at which inhibition is half-maximal.

The nature of this test: Inverse agonist activity at RORgammat in mouse CD4 positive T cells assessed as inhibition of Th17 cell differentiation by measuring IL-17 release after 4 days by cellular staining based flow cytometry. In general terms: A flow cytometer gives signals particle by particle.
With `N#Cc1cccc(C(=O)Nc2ccc3c(c2)C(N2CC4CCC(C2)N4C(=O)C2CCCC2)CC3)c1` (centres undefined), the IC50 was found to be 423 nM. The figure for `N#Cc1cccc(C(=O)Nc2ccc3c(c2)C(N2CCN(C(=O)C4CCCC4)CC2)CC3)c1` (centres undefined) is 2660 nM. For `N#Cc1cccc(C(=O)Nc2cccc3c2CCC3N2CCN(C(=O)C3CCCC3)CC2)c1` (centres undefined) the value was 1780 nM. For `N#Cc1cccc(C(=O)Nc2cccc3c2CCC3N2CC3CCC(C2)N3C(=O)C2CCCC2)c1` (centres undefined) the value was 385 nM.

The values above are taken from BindingDB's records for doi:10.1016/j.ejmech.2019.01.082 (Fudan University, 2019).
